Data as given in patent publication US20190375708A1 (VenatoRx Pharmaceuticals, Inc., priority 2018, published 2019).

Legend:
[1] = system: HBV replication in HepAD38 cells; assay: Anti-HBV replication assay in HepAD38 cells (QPCR of extracellular HBV DNA); assay type: cell-based, HBV (genotype D, serotype ayw); conditions: Hepatitis B virus, 168 h, 7 days incubation, extracellular HBV DNA by QPCR, read-out: Anti-HBV EC50
In short: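 Compounds (1 log10 serial dilutions, […]) were left 7 days on tetracycline-free HepAD38 cultures, a HepG2 line with tet-controlled HBV genotype D. EC50 came from 4-parameter regression of percent inhibition versus vehicle, using supernatant HBV DNA copies/mL measured by QPCR.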

[2] = In vitro cytotoxicity assay (MTT cell viability) in HepG2 cells; assay type: cell-based, human; conditions: human
In short: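 Using MTT conversion as the viability measure, HepG2 cells were incubated with compounds for 7 days (30 μM to 1.0 nM). Absorbance at 492 nm was normalized to vehicle and fitted to give CC50.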

SMILES | EC50 [1] | CC50 at 7 days [2]
Cc1cc(NC(=O)c2c(C)c(C(=O)C(=O)N[C@H](C(N)=O)C(C)(C)C)n(C)c2C)ccc1F [Example 39, (S)-5-(2-((1-amino-3,3-dimethyl-1-oxobutan-2-yl)amino)-2-oxoacetyl)-N-(4-fluoro-3-methylphenyl)-1,2,4-trimethyl-1H-pyrrole-3-carboxamide] | 500 to 1000 nM | > 30000 nM
Cc1cc(NC(=O)c2c(C)c(C(=O)C(=O)NCc3csc(N)n3)n(CCF)c2C)ccc1F [Example 229, 5-(2-(((2-aminothiazol-4-yl)methyl)amino)-2-oxoacetyl)-N-(4-fluoro-3-methylphenyl)-1-(2-fluoroethyl)-2,4-dimethyl-1H-pyrrole-3-carboxamide] | < 50 nM | > 30000 nM
Cc1cc(NC(=O)c2c(C)c(C(=O)C(=O)NC(C)(C)C(F)(F)F)n3c2CCCC3)cnc1F [Example 468, N-(6-fluoro-5-methylpyridin-3-yl)-2-methyl-3-(2-oxo-2-((1,1,1-trifluoro-2-methylpropan-2-yl)amino)acetyl)-5,6,7,8-tetrahydroindolizine-1-carboxamide] | 50 to 499 nM | > 30000 nM
Cc1c(C(=O)Nc2cc(F)c(F)c(F)c2)c(C)n(C)c1C(=O)C(=O)Nc1ccc(F)cn1 [Example 319, 5-(2-((5-fluoropyridin-2-yl)amino)-2-oxoacetyl)-1,2,4-trimethyl-N-(3,4,5-trifluorophenyl)-1H-pyrrole-3-carboxamide] | < 50 nM | 5000 to 30000 nM
Cc1cc(NC(=O)c2c(Cl)c(C(=O)C(=O)NC(C)(C)C(F)(F)F)n3c2CCCC3)cnc1F [Example 730, 2-chloro-N-(6-fluoro-5-methylpyridin-3-yl)-3-(2-oxo-2-((1,1,1-trifluoro-2-methylpropan-2-yl)amino)acetyl)-5,6,7,8-tetrahydroindolizine-1-carboxamide] | 50 to 499 nM | > 30000 nM
Cc1cc(NC(=O)c2c(C)c(C(=O)C(=O)N[C@H](C(=O)O)[C@@H](C)O)n(C)c2C)ccc1F [Example 34, (2-(4-((4-fluoro-3-methylphenyl)carbamoyl)-1,3,5-trimethyl-1H-pyrrol-2-yl)-2-oxoacetyl)-L-threonine] | > 1000 nM | > 30000 nM
Cc1c(C(=O)Nc2ccc(F)c(F)c2)c2n(c1C(=O)C(=O)NC1(CO)CC(F)(F)C1)CCCC2 [Example 459, 3-(2-((3,3-difluoro-1-(hydroxymethyl)cyclobutyl)amino)-2-oxoacetyl)-N-(3,4-difluorophenyl)-2-methyl-5,6,7,8-tetrahydroindolizine-1-carboxamide] | 50 to 499 nM | 5000 to 30000 nM
Cc1cc(NC(=O)c2c(C)c(C(=O)C(=O)N[C@H](C)CCO)n(C)c2C)ccc1F [Example 141, (R)-N-(4-fluoro-3-methylphenyl)-5-(2-((4-hydroxybutan-2-yl)amino)-2-oxoacetyl)-1,2,4-trimethyl-1H-pyrrole-3-carboxamide] | < 50 nM | > 30000 nM
Cc1cc(NC(=O)c2c(Cl)c(C(=O)C(=O)NC(C)(C)CO)n3c2CCCC3)ccc1F [Example 490, 2-chloro-N-(4-fluoro-3-methylphenyl)-3-(2-((1-hydroxy-2-methylpropan-2-yl)amino)-2-oxoacetyl)-5,6,7,8-tetrahydroindolizine-1-carboxamide] | < 50 nM | > 30000 nM
Cc1cc(NC(=O)c2c(C)c(C(=O)C(=O)NC3C(=O)NCC3(C)C)n(C)c2C)ccc1F (stereo not drawn) [Example 679, 5-(2-((4,4-dimethyl-2-oxopyrrolidin-3-yl)amino)-2-oxoacetyl)-N-(4-fluoro-3-methylphenyl)-1,2,4-trimethyl-1H-pyrrole-3-carboxamide] | < 50 nM | > 30000 nM
Cc1cc(NC(=O)c2c(C)c(C(=O)C(=O)NC3(c4noc(-c5cccs5)n4)CCCCC3)n(C)c2C)ccc1F [Example 634] | < 50 nM | > 30000 nM
Cc1cc(NC(=O)c2cc(C(=O)C(=O)NC(C)(C)C(F)(F)F)n3c2CCCC3)ccc1F [Example 409, N-(4-fluoro-3-methylphenyl)-3-(2-oxo-2-((1,1,1-trifluoro-2-methylpropan-2-yl)amino)acetyl)-5,6,7,8-tetrahydroindolizine-1-carboxamide] | 50 to 499 nM | > 30000 nM
Cc1c(C(=O)Nc2ccc(F)nc2)c(C)n(C)c1C(=O)C(=O)NC(C)(C)C(F)(F)F [Example 121, N-(6-fluoropyridin-3-yl)-1,2,4-trimethyl-5-(2-oxo-2-((1,1,1-trifluoro-2-methylpropan-2-yl)amino)acetyl)-1H-pyrrole-3-carboxamide] | < 50 nM | > 30000 nM
Cc1cc(NC(=O)c2c(C)c(C(=O)C(=O)N[C@@H]3CCCC[C@H]3O)n(C)c2C)ccc1F [Example 136, N-(4-fluoro-3-methylphenyl)-5-(2-(((1R,2R)-2-hydroxycyclohexyl)amino)-2-oxoacetyl)-1,2,4-trimethyl-1H-pyrrole-3-carboxamide] | < 50 nM | > 30000 nM
Cc1csc(C2(NC(=O)C(=O)c3c(C)c(C(=O)Nc4ccc(F)c(C)c4)c(C)n3C)CCCC2)n1 [Example 635, N-(4-fluoro-3-methylphenyl)-1,2,4-trimetthyl-5-(2-((1-(4-methylthiazol-2-yl)cyclopentyl)amino)-2-oxoacetyl)-1H-pyrrole-3-carboxamide] | < 50 nM | > 30000 nM
Cc1cc(NC(=O)c2c(C)c(C(=O)C(=O)N[C@@H]3CC[C@H](O)[C@@H]3O)n(C)c2C)ccc1F [Example 152, 5-(2-(((1R,2R,3S)-2,3-dihydroxycyclopentyl)amino)-2-oxoacetyl)-N-(4-fluoro-3-methylphenyl)-1,2,4-trimethyl-1H-pyrrole-3-carboxamide] | < 50 nM | > 30000 nM
Cc1cc(NC(=O)c2c(C)c(C(=O)C(=O)NC3(CO)CC(F)(F)C3)n(C)c2C)cnc1F [Example 184, 5-(2-((3,3-difluoro-1-(hydroxymethyl)cyclobutyl)amino)-2-oxoacetyl)-N-(6-fluoro-5-methylpyridin-3-yl)-1,2,4-trimethyl-1H-pyrrole-3-carboxamide] | < 50 nM | > 30000 nM
Cc1cc(NC(=O)c2c(C)c(C(=O)C(=O)N[C@H](C(=O)O)C(C)(C)C)n(C)c2C)ccc1F [Example 30, (S)-2-(22-(4-((4-fluoro-3-methylphenyl)carbamoyl)-1,3,5-trimethyl-1H-pyrrol-2-yl)-2-oxoacetamido)-3,3-dimethylbutanoic acid] | > 1000 nM | > 30000 nM
Cc1cc(NC(=O)c2cc(C(=O)C(=O)NC(C)C)n3c2CCCC3)ccc1F [Example 412, N-(4-fluoro-3-methylphenyl)-3-(2-(isopropylamino)-2-oxoacetyl)-5,6,7,8-tetrahydroindolizine-1-carboxamide] | 50 to 499 nM | 5000 to 30000 nM
O=C(N[C@H]1COC[C@@H]1O)C(=O)c1c(Cl)c(C(=O)Nc2ccc(F)c(F)c2)c2n1CCC2 [Example 570, 6-chloro-N-(3,4-difluorophenyl)-5-(22-(((3S,4R)-4-hydroxytetrahydrofuran-3-yl)amino)-2-oxoacetyl)-2,3-dihydro-1H-pyrrolizine-7-carboxamide] | < 50 nM | > 30000 nM
Cc1cc(NC(=O)c2c(C)c(C(=O)C(=O)NC3(C)CCN(C(=O)c4cn(C)nc4C(F)F)CC3)n(C)c2C)ccc1F [Example 708, 5-(2-((1-(3-(difluoromethyl)-1-methyl-1H-pyrazole-4-carbonyl)-4-methylpiperidin-4-yl)amino)-2-oxoacetyl)-N-(4-fluoro-3-methylphenyl)-1,2,4-trimethyl-1H-pyrrole-3-carboxamide] | < 50 nM | > 30000 nM
Cc1cc(NC(=O)c2c(C)c(C(=O)C(=O)N[C@H](CO)[C@@H](C)O)n(C)c2C)ccc1F [Example 143, 5-(2-(((2R,3R)-1,3-dihydroxybutan-2-yl)amino)-2-oxoacetyl)-N-(4-fluoro-3-methylphenyl)-1,2,4-trimethyl-1H-pyrrole-3-carboxamide] | < 50 nM | > 30000 nM
Cc1cc(NC(=O)c2c(C)c(C(=O)C(=O)N[C@H]3c4ccccc4C[C@@H]3O)n(C)c2C)ccc1F [Example 259, N-(4-fluoro-3-methylphenyl)-5-(2-(((1S,2S)-2-hydroxy-2,3-dihydro-1H-inden-1-yl)amino)-2-oxoacetyl)-1,2,4-trimethyl-1H-pyrrole-3-carboxamide] | < 50 nM | > 30000 nM
Cc1cc(NC(=O)c2c(Cl)c(C(=O)C(=O)NC(C)(C)C)n3c2CCCC3)ccc1F [Example 489] | < 50 nM | > 30000 nM
Cc1cc(NC(=O)c2c(C)c(C(=O)C(=O)N[C@H]3CC[C@@H](C(=O)O)CC3)n(C)c2C)ccc1F [Example 279, (1s,4s)-4-(2-(4-((4-fluoro-3-methylphenyl)carbamoyl)-1,3,5-trimethyl-1H-pyrrol-2-yl)-2-oxoacetamido)cyclohexane-1-carboxylic acid] | 50 to 499 nM | > 30000 nM
COc1c(C(=O)Nc2ccc(F)c(F)c2)c(C)n(C)c1C(=O)C(=O)NCC(C)(C)O [Example 382, N-(3,4-difluorophenyl)-5-(2-((2-hydroxy-2-methylpropyl)amino)-2-oxoacetyl)-4-methoxy-1,2-dimethyl-1H-pyrrole-3-carboxamide] | > 1000 nM | > 30000 nM
Cc1c(C(=O)Nc2ccc(F)c(Cl)c2)c2n(c1C(=O)C(=O)NCC(C)(C)CO)CCCC2 [Example 466, N-(3-chloro-4-fluorophenyl)-3-(2-((3-hydroxy-2,2-dimethylpropyl)amino)-2-oxoacetyl)-2-methyl-5,6,7,8-tetrahydroindolizine-1-carboxamide] | 50 to 499 nM | > 30000 nM
